From the NIST ThermoML archive (doi:10.1016/j.jct.2018.11.025)
± gives the expanded uncertainty stated by the source.

Details: for Normal melting temperature: DTA

Row | SMILES | Normal melting temperature (Crystal) | Normal melting temperature (Crystal 1) | Triple point temperature (Crystal 2, DSC)
1 | c1ccc2c(c1)[nH]c1ccccc12 [9H-carbazole] | 243.89 ± 0.7 °C |  | 
2 | c1ccc2c(c1)ccc1ccccc12 [phenanthrene] |  | 98.56 ± 0.7 °C | 339.52 ± 0.93 K
